Results reported in ChEMBL document CHEMBL1649134, “Occurrence of efflux mechanism and cephalosporinase variant in a population of Enterobacter aerogenes and Klebsiella pneumoniae isolates producing extended-spectrum beta-lactamases” (2009).
Values after ≈ are worked out from the molar mass of the structure shown.

Assays:
Assay type in all cases: functional
Klebsiella aerogenes [1] = test: Antimicrobial activity against multidrug resistant Enterobacter aerogenes isolate 15 by broth dilution method in presence of 26.3 mg/L efflux pump inhibitor phenylalanine-arginine-beta-naphthylamide
Klebsiella aerogenes [2] = test: Antimicrobial activity against multidrug resistant Enterobacter aerogenes isolate 16 by broth dilution method in presence of 26.3 mg/L efflux pump inhibitor phenylalanine-arginine-beta-naphthylamide
Klebsiella aerogenes [3] = test: Antimicrobial activity against multidrug resistant Enterobacter aerogenes isolate 18 by broth dilution method in presence of 26.3 mg/L efflux pump inhibitor phenylalanine-arginine-beta-naphthylamide
Klebsiella aerogenes [4] = test: Antimicrobial activity against multidrug resistant Enterobacter aerogenes isolate 23 by broth dilution method in presence of 26.3 mg/L efflux pump inhibitor phenylalanine-arginine-beta-naphthylamide
Klebsiella aerogenes [5] = test: Antimicrobial activity against multidrug resistant Enterobacter aerogenes isolate 25 by broth dilution method in presence of 26.3 mg/L efflux pump inhibitor phenylalanine-arginine-beta-naphthylamide
Klebsiella aerogenes [6] = test: Antimicrobial activity against multidrug resistant Enterobacter aerogenes isolate 26 by broth dilution method in presence of 26.3 mg/L efflux pump inhibitor phenylalanine-arginine-beta-naphthylamide
Klebsiella pneumoniae [7] = test: Antimicrobial activity against multidrug resistant Klebsiella pneumoniae isolate 1 by broth dilution method in presence of 26.3 mg/L efflux pump inhibitor phenylalanine-arginine-beta-naphthylamide
Klebsiella pneumoniae [8] = test: Antimicrobial activity against multidrug resistant Klebsiella pneumoniae isolate 3 by broth dilution method in presence of 26.3 mg/L efflux pump inhibitor phenylalanine-arginine-beta-naphthylamide
Klebsiella pneumoniae [9] = test: Antimicrobial activity against multidrug resistant Klebsiella pneumoniae isolate 5 by broth dilution method in presence of 26.3 mg/L efflux pump inhibitor phenylalanine-arginine-beta-naphthylamide
Klebsiella pneumoniae [10] = test: Antimicrobial activity against multidrug resistant Klebsiella pneumoniae isolate 8 by broth dilution method in presence of 26.3 mg/L efflux pump inhibitor phenylalanine-arginine-beta-naphthylamide
Klebsiella pneumoniae [11] = test: Antimicrobial activity against multidrug resistant Klebsiella pneumoniae isolate 14 by broth dilution method in presence of 26.3 mg/L efflux pump inhibitor phenylalanine-arginine-beta-naphthylamide
Klebsiella pneumoniae [12] = test: Antimicrobial activity against multidrug resistant Klebsiella pneumoniae isolate 16 by broth dilution method in presence of 26.3 mg/L efflux pump inhibitor phenylalanine-arginine-beta-naphthylamide
Klebsiella aerogenes [13] = test: Antimicrobial activity against multidrug resistant Enterobacter aerogenes ATCC 15038 by broth dilution method in presence of 26.3 mg/L efflux pump inhibitor phenylalanine-arginine-beta-naphthylamide
Klebsiella aerogenes [14] = test: Antimicrobial activity against multidrug resistant Enterobacter aerogenes isolate 3 by broth dilution method
Klebsiella aerogenes [15] = test: Antimicrobial activity against multidrug resistant Enterobacter aerogenes isolate 5 by broth dilution method
Klebsiella aerogenes [16] = test: Antimicrobial activity against multidrug resistant Enterobacter aerogenes isolate 7 by broth dilution method
Klebsiella aerogenes [17] = test: Antimicrobial activity against multidrug resistant Enterobacter aerogenes isolate 9 by broth dilution method
Klebsiella aerogenes [18] = test: Antimicrobial activity against multidrug resistant Enterobacter aerogenes isolate 12 by broth dilution method
Klebsiella aerogenes [19] = test: Antimicrobial activity against multidrug resistant Enterobacter aerogenes isolate 14 by broth dilution method
Klebsiella aerogenes [20] = test: Antimicrobial activity against multidrug resistant Enterobacter aerogenes isolate 15 by broth dilution method
Klebsiella aerogenes [21] = test: Antimicrobial activity against multidrug resistant Enterobacter aerogenes isolate 16 by broth dilution method
Klebsiella aerogenes [22] = test: Antimicrobial activity against multidrug resistant Enterobacter aerogenes isolate 18 by broth dilution method
Klebsiella aerogenes [23] = test: Antimicrobial activity against multidrug resistant Enterobacter aerogenes isolate 21 by broth dilution method
Klebsiella aerogenes [24] = test: Antimicrobial activity against multidrug resistant Enterobacter aerogenes isolate 25 by broth dilution method
Klebsiella aerogenes [25] = test: Antimicrobial activity against multidrug resistant Enterobacter aerogenes isolate 26 by broth dilution method
Klebsiella pneumoniae [26] = test: Antimicrobial activity against multidrug resistant Klebsiella pneumoniae isolate 4 by broth dilution method
Klebsiella pneumoniae [27] = test: Antimicrobial activity against multidrug resistant Klebsiella pneumoniae isolate 5 by broth dilution method
Klebsiella pneumoniae [28] = test: Antimicrobial activity against multidrug resistant Klebsiella pneumoniae isolate 6 by broth dilution method
Klebsiella pneumoniae [29] = test: Antimicrobial activity against multidrug resistant Klebsiella pneumoniae isolate 10 by broth dilution method
Klebsiella pneumoniae [30] = test: Antimicrobial activity against multidrug resistant Klebsiella pneumoniae isolate 11 by broth dilution method
Klebsiella pneumoniae [31] = test: Antimicrobial activity against multidrug resistant Klebsiella pneumoniae isolate 12 by broth dilution method
Klebsiella aerogenes [32] = test: Antimicrobial activity against multidrug resistant Enterobacter aerogenes ATCC 15038 by broth dilution method
Klebsiella aerogenes [33] = test: Antimicrobial activity against multidrug resistant Enterobacter aerogenes isolate 1 by broth dilution method in presence of 26.3 mg/L efflux pump inhibitor phenylalanine-arginine-beta-naphthylamide
Klebsiella aerogenes [34] = test: Antimicrobial activity against multidrug resistant Enterobacter aerogenes isolate 2 by broth dilution method in presence of 26.3 mg/L efflux pump inhibitor phenylalanine-arginine-beta-naphthylamide
Klebsiella aerogenes [35] = test: Antimicrobial activity against multidrug resistant Enterobacter aerogenes isolate 3 by broth dilution method in presence of 26.3 mg/L efflux pump inhibitor phenylalanine-arginine-beta-naphthylamide
Klebsiella aerogenes [36] = test: Antimicrobial activity against multidrug resistant Enterobacter aerogenes isolate 5 by broth dilution method in presence of 26.3 mg/L efflux pump inhibitor phenylalanine-arginine-beta-naphthylamide
Klebsiella aerogenes [37] = test: Antimicrobial activity against multidrug resistant Enterobacter aerogenes isolate 9 by broth dilution method in presence of 26.3 mg/L efflux pump inhibitor phenylalanine-arginine-beta-naphthylamide
Klebsiella aerogenes [38] = test: Antimicrobial activity against multidrug resistant Enterobacter aerogenes isolate 10 by broth dilution method in presence of 26.3 mg/L efflux pump inhibitor phenylalanine-arginine-beta-naphthylamide
Klebsiella aerogenes [39] = test: Antimicrobial activity against multidrug resistant Enterobacter aerogenes isolate 13 by broth dilution method in presence of 26.3 mg/L efflux pump inhibitor phenylalanine-arginine-beta-naphthylamide
Klebsiella aerogenes [40] = test: Antimicrobial activity against multidrug resistant Enterobacter aerogenes isolate 14 by broth dilution method in presence of 26.3 mg/L efflux pump inhibitor phenylalanine-arginine-beta-naphthylamide

SMILES	MIC (Klebsiella aerogenes [1]) [µg/mL]	MIC (Klebsiella aerogenes [2]) [µg/mL]	MIC (Klebsiella aerogenes [3]) [µg/mL]	MIC (Klebsiella aerogenes [4]) [µg/mL]	MIC (Klebsiella aerogenes [5]) [µg/mL]	MIC (Klebsiella aerogenes [6]) [µg/mL]	MIC (Klebsiella pneumoniae [7]) [µg/mL]	MIC (Klebsiella pneumoniae [8]) [µg/mL]	MIC (Klebsiella pneumoniae [9]) [µg/mL]	MIC (Klebsiella pneumoniae [10]) [µg/mL]	MIC (Klebsiella pneumoniae [11]) [µg/mL]	MIC (Klebsiella pneumoniae [12]) [µg/mL]	MIC (Klebsiella aerogenes [13]) [µg/mL]	MIC (Klebsiella aerogenes [14]) [µg/mL]	MIC (Klebsiella aerogenes [15]) [µg/mL]	MIC (Klebsiella aerogenes [16]) [µg/mL]	MIC (Klebsiella aerogenes [17]) [µg/mL]	MIC (Klebsiella aerogenes [18]) [µg/mL]	MIC (Klebsiella aerogenes [19]) [µg/mL]	MIC (Klebsiella aerogenes [20]) [µg/mL]	other results
C[C@@H]1CN(c2c(F)c(N)c3c(=O)c(C(=O)O)cn(C4CC4)c3c2F)C[C@H](C)N1 [SPARFLOXACIN]	8	8	16	4	8	4	0.25	4	≤ 0.06	≤ 0.06	≤ 0.06	≤ 0.06	≤ 0.06	128 (≈ 326 µM)	512 (≈ 1300 µM)	128 (≈ 326 µM)	128 (≈ 326 µM)	128 (≈ 326 µM)	128 (≈ 326 µM)	128 (≈ 326 µM)	MIC (Klebsiella aerogenes [21]): 64 µg/mL (≈ 163 µM); MIC (Klebsiella aerogenes [22]): 128 µg/mL (≈ 326 µM); MIC (Klebsiella aerogenes [23]): 512 µg/mL (≈ 1300 µM); MIC (Klebsiella aerogenes [24]): 128 µg/mL (≈ 326 µM); MIC (Klebsiella aerogenes [25]): 32 µg/mL (≈ 81.5 µM); MIC (Klebsiella pneumoniae [26]): 8 µg/mL (≈ 20.4 µM); MIC (Klebsiella pneumoniae [27]): 0.125 µg/mL (≈ 0.319 µM); MIC (Klebsiella pneumoniae [28]): ≤ 0.06 µg/mL; MIC (Klebsiella pneumoniae [29]): 8 µg/mL (≈ 20.4 µM); MIC (Klebsiella pneumoniae [30]): 8 µg/mL (≈ 20.4 µM); MIC (Klebsiella pneumoniae [31]): ≤ 0.06 µg/mL; MIC (Klebsiella aerogenes [32]): ≤ 0.06 µg/mL; MIC (Klebsiella aerogenes [33]): 8 µg/mL; MIC (Klebsiella aerogenes [34]): 8 µg/mL; MIC (Klebsiella aerogenes [35]): 8 µg/mL; MIC (Klebsiella aerogenes [36]): 16 µg/mL; MIC (Klebsiella aerogenes [37]): 8 µg/mL; MIC (Klebsiella aerogenes [38]): 8 µg/mL; MIC (Klebsiella aerogenes [39]): 8 µg/mL; MIC (Klebsiella aerogenes [40]): 8 µg/mL
CN(C)[C@@H]1C(O)=C(C(N)=O)C(=O)[C@@]2(O)C(O)=C3C(=O)c4c(O)cccc4[C@@](C)(O)[C@H]3C[C@@H]12 [TETRACYCLINE]	8	2	4	8	4	2	128	256	128	128	256	128	0.5	128 (≈ 288 µM)	128 (≈ 288 µM)	128 (≈ 288 µM)	64 (≈ 144 µM)	128 (≈ 288 µM)	64 (≈ 144 µM)	64 (≈ 144 µM)	MIC (Klebsiella aerogenes [21]): 64 µg/mL (≈ 144 µM); MIC (Klebsiella aerogenes [22]): 4 µg/mL (≈ 9 µM); MIC (Klebsiella aerogenes [23]): 128 µg/mL (≈ 288 µM); MIC (Klebsiella aerogenes [24]): 64 µg/mL (≈ 144 µM); MIC (Klebsiella aerogenes [25]): 32 µg/mL (≈ 72 µM); MIC (Klebsiella pneumoniae [26]): 2 µg/mL (≈ 4.5 µM); MIC (Klebsiella pneumoniae [27]): 2 µg/mL (≈ 4.5 µM); MIC (Klebsiella pneumoniae [28]): 2 µg/mL (≈ 4.5 µM); MIC (Klebsiella pneumoniae [29]): 2 µg/mL (≈ 4.5 µM); MIC (Klebsiella pneumoniae [30]): 4 µg/mL (≈ 9 µM); MIC (Klebsiella pneumoniae [31]): 2 µg/mL (≈ 4.5 µM); MIC (Klebsiella aerogenes [32]): 1 µg/mL (≈ 2.25 µM); MIC (Klebsiella aerogenes [33]): 8 µg/mL; MIC (Klebsiella aerogenes [34]): 4 µg/mL; MIC (Klebsiella aerogenes [35]): 8 µg/mL; MIC (Klebsiella aerogenes [36]): 32 µg/mL; MIC (Klebsiella aerogenes [37]): 4 µg/mL; MIC (Klebsiella aerogenes [38]): 8 µg/mL; MIC (Klebsiella aerogenes [39]): 8 µg/mL; MIC (Klebsiella aerogenes [40]): 16 µg/mL
